# Test results: patent US20040019118A1, “NMDA receptor antagonists and their use in inhibiting abnormal hyperphosphorylation of microtubule associated protein tau” (priority 2002, published 2004)
# Entries after “also recorded” stand apart in the source; their conditions may differ.
# Assays:
# Format in all cases: cell-based, rat
# CaMKII = CaMKII activity in extracts of treated hippocampal slice cultures
# Method: (§1) Organotypic cultures of rat hippocampal slices were prepared from 20-30 day old Wistar rats and cultured with the interface method as described previously (Stoppini, et al. 1991; Bahr, et al. 1995; Zhongrin, et al. 2000). The rats were anesthetized with ketamine (100 mg/kg body weight) and decapitated and the hippocampi were dissected out and sliced into 400 um coronal sections by a McIllwain tissue chopper. Select slices with uninterrupted bright transparent neuronal layers were plated, 1-3 slices/filter, onto Millicell CM filters (Millipore, Bedford, Mass.). For the first 2 days in vitro (DIV) cultures were maintained in 25% horse serum, 50% Basal Media-Eagle (BEM), 25% Eagle's Balanced Salt Solution (EBSS), 25 mM HEPES, 1 mM glutamine, 28 mM glucose, pH 7.2, at 32° C. in a 5% CO2 humidified atmosphere. The slice cultures were then switched to 25% horse serum, 50% BEM and EBSS modified so that the potassium concentration was 2.66 mM, for another 5 DIV. After 7 DIV, the cultures were maintained in physiological potassium containing 5% horse serum medium at 35° C. for at least 20 days before any treatment was applied. When the slices were treated, the reagents were applied into the culture medium. At different time points, the slices collected with a brush were washed twice in homogenizing buffer (50 mM HEPES, pH 7.0, 10 mM β-merceptoethanol [BME], 1 mM EDTA, 1 mM EGTA, 0.1 mM phenylmethyl sulfonyl fluoride [PMSF], 2.0 mM benzamidine and 2.0 μg/ml each of aprotinin, leupeptin and pepstatin) and homogenized at 4° C. using a Teflon-glass homogenizer. The homogenate was then divided into two parts, one was centrifuged at 16000×g for 15 min and the supernatant was used to assay activities of PP-2A and PP-1. The rest of the homogenate was diluted 1:1 with a phosphatase inhibitor cocktail (20 mM β-glycerophosphate, 2 mM Na3VO4 and 100 mM NaF, pH 7.0) and either used for Western blots or centrifuged at 16000×g for 15 min and the resulting supernatant used to determine the kinase activities.
# (§2) CaMKII activity was measured in 25 μl of buffer containing 50 mM HEPES, pH 7.5, 10 mM MgCl2, 2.0 mM CaCl2, 10 mM BME, 10 μg/ml calmodulin (CaM), 20 μM syntide (Sigma, St Louis Mo., USA), 0.06 mg/ml slice extract and 200 μM [γ^32P]ATP. The reaction was initiated by adding [γ32p] ATP. After incubation for 10 min at 30° C., 10 μl reaction mixture was removed and spotted on to phosphocellulose membrane. The membrane was then washed five times in 1% phosphoric acid to remove non-protein incorporated ^32P, dried and counted by Cerenkov radiation. The activity of PKA was determined as above except the reaction mixture contained 70 mM NaHPO4, pH 6.8, 14 mM MgCl2, 1.4 mM EDTA, 30 μM malantide (Sigma, St Louis, Mo., USA), 200 μM [γ^32p] ATP and 0.06 mg/ml slice extract.
# PKA = PKA activity in extracts of treated hippocampal slice cultures
# Method: as §1, §2
# GSK-3 = GSK-3 activity in extracts of treated hippocampal slice cultures
# Method: (§3) Organotypic cultures of rat hippocampal slices were prepared from 20-30 day old Wistar rats and cultured with the interface method as described previously (Stoppini, et al. 1991; Bahr, et al. 1995; Zhongrin, et al. 2000). The rats were anesthetized with ketamine (100 mg/kg body weight) and decapitated and the hippocampi were dissected out and sliced into 400 um coronal sections by a McIllwain tissue chopper. Select slices with uninterrupted bright transparent neuronal layers were plated, 1-3 slices/filter, onto Millicell CM filters (Millipore, Bedford, Mass.). For the first 2 days in vitro (DIV) cultures were maintained in 25% horse serum, 50% Basal Media-Eagle (BEM), 25% Eagle's Balanced Salt Solution (EBSS), 25 mM HEPES, 1 mM glutamine, 28 mM glucose, pH 7.2, at 32° C. in a 5% CO2 humidified atmosphere. The slice cultures were then switched to 25% horse serum, 50% BEM and EBSS modified so that the potassium concentration was 2.66 mM, for another 5 DIV. After 7 DIV, the cultures were maintained in physiological potassium containing 5% horse serum medium at 35° C. for at least 20 days before any treatment was applied. When the slices were treated, the reagents were applied into the culture medium. […]
# [1] = tested on: hippocampal slices in culture; assay: Cell death by LDH activity released into the culture medium
# Method: as §1
# The LDH released into the culture medium from the slices was determined calorimetrically using Cytotox 96R Non-Radioactive Cytotoxicity Assay Kit (Promega, Madison, Wis.) according to the manufacturer's protocol. The assay was carried out in 96-well microplates, and the results were read by a kinetic microplate reader (Molecular Devices) at a wavelength of 490 nm. Protein concentrations were assayed by the modified Lowry method (Bensadoun and Weinstein, 1976).
# pNF-H/M = assay: Immunohistochemical staining of neurofilaments (pNF-H/M) in cultured hippocampal slices; conditions: 100 nM OA 24 h
# Method: as §3, with “DIV.” for “DIV. After 7 DIV, the cultures were maintained in physiological potassium containing 5% horse serum medium at 35° C. for at least 20 days before any treatment was applied. When the slices were treated, the reagents were applied into the culture medium.”
# After different treatments some of the hippocampal slices were fixed in periodate/lysine/paraformaldehyde solution (Mclean, et al. 1974) at 33° C. for 5 h and then kept in 1% Triton-x-100 in PBS (pH 7.4) for 72 h at room temperature to improve the penetration of the antibodies. […] Peroxidase was detected using 0.05% diaminobenzidine (DAB) and H2O2 (0.01%) for 10 min.
# MAP2 = assay: 125I-Western blots of MAP2 in slice homogenates
# Method: as §3, with “DIV.” for “DIV. After 7 DIV, the cultures were maintained in physiological potassium containing 5% horse serum medium at 35° C. for at least 20 days before any treatment was applied. When the slices were treated, the reagents were applied into the culture medium.”
# (§4) The phosphorylation of tau at Ser 262 and the levels of MAP2 and phosphorylated NF-H/M were assayed by ^125I-Western blots. […] Both immuno-dot-blots and Western blots were developed with ^125I-radiolabeled secondary antibodies and radioimmunoreactivity was visualized and quantitated using a phosphorimager (Fujifilm BAS-1500) and TINA 2.0 software (Raytest Isotopenmessgeräte GmbH)
# NF-H/M = assay: 125I-Western blots of phosphorylated NF-H/M in slice homogenates
# Method: as §3, with “DIV.” for “DIV. After 7 DIV, the cultures were maintained in physiological potassium containing 5% horse serum medium at 35° C. for at least 20 days before any treatment was applied. When the slices were treated, the reagents were applied into the culture medium.”
# as §4
# [2] = 100 nM OA, 10 μM Memantine, 24 h
structure (smiles),measurement,setting,value
"CC12CC3CC(C)(C1)CC(N)(C3)C2 [Memantine, 1-amino-3,5-dimethyl adamantane]",restoration of OA-stimulated CaMKII activity,"CaMKII; 100 nM OA and 1, 10 or 30 μM Memantine, 3-48 h (FIG. 2b), p<0.02",restored the OA-stimulated CaMKII activity to normal level
same,restoration of CaMKII activity,"CaMKII; 100 nM OA plus 10 μM Memantine 24 h, or OA 24 h, wash, then Memantine 24 h",Restoration of CaMKII activity; also recorded: almost completely restored; also recorded: restored the activities of both PP-2A and CaMKII
same,restoration of OA-stimulated CaMKII activity,CaMKII; [2],"restored the OA-induced changes in the activities of PP-2A, CaMKII and PKA to normal levels; also recorded: practically completely restored"
same,additional effect on restoration of CaMKII activity,"CaMKII; Memantine 10 to 30 μM, or 24 h to 48 h",Neither increase of Memantine from 10 μM to 30 μM nor duration of the treatment from 24 h to 48 h resulted in any significant additional effect
same,concentration giving full effect on restoration of CaMKII activity,CaMKII; OA-treated slices,10 µM
same,lowest concentration at which restoration of CaMKII activity was observed,CaMKII; OA-treated slices,1 µM
same,CaMKII activity after replacement of glutamate,"CaMKII; after 0.3 mM glutamate, fresh medium with or without 10 μM Memantine or 15 μM MK801",restored the CaMKII activity to normal level
same,effect on CaMKII activity in control (untreated) slices,CaMKII; no OA,no significant effect
same,restoration of OA-induced change in PKA activity,PKA; [2],"restored the OA-induced changes in the activities of PP-2A, CaMKII and PKA to normal levels"
same,concentration (as low as) restoring OA-induced increase in PKA activity to normal level,"PKA; 100 nM OA, p<0.05",1 µM
same,effect on PKA activity in control/untreated cultures,PKA; no OA,no significant effect
same,effect on GSK-3 activity,GSK-3; Memantine in OA-treated cultures,neither OA nor Memantine had any significant effect; also recorded: no significant effect
same,concentration (as low as) that completely inhibited OA-induced cell death,"[1]; 100 nM OA, p<0.001 (FIG. 2d)",1 µM
same,inhibition of OA-induced cell death,[1]; 10 μM Memantine,completely inhibited
same,effect on LDH activity in the medium of control cultures,"[1]; 1-30 μM Memantine, no OA",no effect
same,lowest concentration with significant/detectable inhibition of OA-induced cell death,[1]; OA-treated slices,1 µM
same,"neurofilament (pNF-H/M, SMI 31) immunostaining",pNF-H/M; then 10 μM Memantine 24 h,reduced these changes; also recorded: partially reversed
same,MAP2 level,MAP2; OA then Memantine,reversal to normal levels; also recorded: increased the levels of MAP2
same,phosphorylated NF-H/M level,NF-H/M; OA plus/then Memantine,reversed the OA-induced increase in phosphorylated NF-H/M; also recorded: reversal of phosphorylation and accumulation of NF-H/M subunits; also recorded: reversed the hyperphosphorylation of NF-H/M
"C=C1[C@@H](O)[C@@H]2O[C@]3(CC[C@H](/C=C/[C@@H](C)[C@@H]4CC(C)=C[C@@]5(O[C@H](C[C@@](C)(O)C(=O)O)CC[C@H]5O)O4)O3)CC[C@H]2O[C@@H]1[C@@H](O)C[C@H](C)[C@H]1O[C@@]2(CCCCO2)CC[C@H]1C [OA, Okadaic Acid]",increase in CaMKII activity,"CaMKII; 10 nM OA, 24 h",~20%
same,CaMKII activity as % of control,"CaMKII; 100 nM OA, 24 h",180%
same,increase in CaMKII activity,"CaMKII; 100 nM OA, 24 h",~70%
same,increase in CaMKII activity,"CaMKII; 1,000 nM OA, 24 h",~140%
same,CaMKII activity as % of control,"CaMKII; 1000 nM OA, 24 h",240%
same,change in CaMKII activity,CaMKII; OA-treated slice cultures,marked increase
same,increase in PKA activity,"PKA; 100 nM OA, 24 h or 48 h",~20%
same,change in PKA activity,PKA; OA-treated slice cultures,no significant changes; also recorded: no significant alteration
same,change in GSK-3 activity,GSK-3; OA-treated slice cultures,no significant change; also recorded: neither OA nor Memantine had any significant effect; also recorded: no significant alteration
same,cell death (LDH activity released in the medium),"[1]; OA up to 1 μM, up to 48 h",increased with increase in OA concentration and treatment period; also recorded: markedly increased; also recorded: several-fold increase
same,"neurofilament (pNF-H/M, SMI 31) immunostaining",pNF-H/M; then medium 24 h,immunostaining was increased; also recorded: an increase in phosphorylation and accumulation of NF-H/M
same,MAP2 level,MAP2; OA-treated cultures,a decrease in MAP2
same,phosphorylated NF-H/M level,NF-H/M; OA-treated cultures,increase in phosphorylated NF-H/M
